This note sets out measurements from patent US9771381B2, “Derivatives of 1-amino-2-cyclobutylethylboronic acid” (Millennium Pharmaceuticals, Inc., priority 2008, dated 2017).

Test [1] deals with T1, human 20S proteasome (Homo sapiens, UniProt P28074).
T1 construct: purchased Boston Biochem
As to the kind of experiment: 20S Proteasome Assay. The settings on record: Ac-WLA-AMC substrate 15 μM, human PA28 activator 12 nM, human 20S proteasome 0.25 nM, 37° C., pH7.4. It counts as biochemical.

Test [2] has as its target human 20S proteasome (Homo sapiens, UniProt P28072+P28074+Q99436). As to the kind of experiment: Proteasome Inhibition Kinetics (enzyme progress curves). It counts as biochemical. The settings on record: human 20S proteasome 0.25 nM activated with 0.01% SDS, 37° C.; half-life determined from koff; read-out: dissociation half-life t1/2. The protocol:
Enzyme kinetic parameters including dissociation constants and half lives were determined by analysis of enzyme progress curves as follows:
Proteasome inactivation measurements were obtained by monitoring individual progress curves for the hydrolysis of the site-specific fluorogenic 7-amido-4-methylcoumarin (AMC)-labeled peptide substrates (β5, Suc-LLVY-AMC; β2, Z-VLR-AMC, and β1, Z-LLE-AMC) at different inhibitor concentrations. Cleavage of the fluorogenic peptide was continuously monitored as a change in the fluorescence emission at 460 nm (λex=360 nm) and plotted as a function of time. All assays were performed in cuvettes with 2 mL of 50 mM HEPES (pH 7.5), 0.5 mM EDTA, at 37±0.2° C., and with continuous stirring. The concentrations of substrates varied from 10 to 25 μM (<½ KM). The concentration of human 20S proteasome was 0.25 nM and was activated with 0.01% SDS. The rate constant, kobs, describing the conversion from the initial velocity to the steady state velocity, were estimated by nonlinear least-squares regression analysis of the individual progress curves using the equation for time-dependent or slow-binding inhibition:
[formula] where F is fluorescence, vi and vs are the initial and steady state velocities of the reaction in the presence of inhibitor, and t is time. A plot of kobs as a function of [I] was made to obtain kon from the slope of the linear fit of the data. The apparent dissociation constant, K^appii, was determined by nonlinear least-fit of the fractional velocity, vs/vo, as a function of [I], were vs is the steady state value obtained from the time-dependent or slow-binding equation and vo is the initial velocity in the absence of inhibitor: […]
The dissociation constant Ki, was calculated from the apparent Ki using the following expression: […]
The off rate, koff, was mathematically calculated from the above determined parameters using the following relationship:
The half-life was then determined from the koff value using the following relationship: […]

SMILES strings stand for the structures. pIC50: −log10 of the molar value.

In test [1], `O=C(N[C@@H](CC1CCC1)B(O)O)[C@H](Cc1ccccc1)NS(=O)(=O)c1ccc2ccccc2c1` [Compound 1, [(1R)-2-cyclobutyl-1-({(2S)-2-[(2-naphthylsulfonyl)amino]-3-phenylpropanoyl}amino)ethyl]boronic acid] showed a pIC50 of over 7.30. Besides, in test [2], the residence time was under 10 min.
The like results for `O=C(N[C@@H](Cc1ccccc1)C(=O)N[C@@H](CC1CCC1)B(O)O)c1cccnc1Oc1ccccc1` [Compound 2, {(1R)-2-cyclobutyl-1-[((2S)-2-{[(2-phenoxypyridin-3-yl)carbonyl]amino}-3-phenylpropanoyl)amino]ethyl}boronic acid] were, in that order, over 7.30 and 10 to 60 min.
The like results for `O=C(N[C@@H](Cc1ccccc1)C(=O)N[C@@H](CC1CCC1)B(O)O)c1cc(Cl)ccc1Cl` [Compound 6, [(1R)-2-cyclobutyl-1-({(2S)-2-[(2,5-dichlorobenzoyl)amino]-3-phenylpropanoyl}amino)ethyl]boronic acid] were, in that order, over 7.30 and 10 to 60 min.
The like results for `O=C(N[C@@H](Cc1ccccc1)C(=O)N[C@@H](CC1CCC1)B(O)O)c1cnccn1` [Compound 17, [(1R)-2-cyclobutyl-1-({(2S)-3-phenyl-2-[(pyrazin-2-ylcarbonyl)amino]propanoyl}amino)ethyl]boronic acid] were, in that order, over 7.30 and 10 to 60 min.
The molecule `CN1CCOc2ccc(S(=O)(=O)N[C@@H](Cc3ccccc3)C(=O)N[C@@H](CC3CCC3)B(O)O)cc21` [Compound 20, {(1R)-2-cyclobutyl-1-[((2S)-2-{[(4-methyl-3,4-dihydro-2H-1,4-benzoxazin-6-yl)sulfonyl]amino}-3-phenylpropanoyl)amino]ethyl}boronic acid] gave a pIC50 in test [1] of over 7.30. Also, the residence time in test [2] is under 10 min.
In turn, `O=C(N[C@@H](CC1CCC1)B(O)O)[C@H](Cc1ccccc1)NS(=O)(=O)c1cc(Cl)ccc1Cl` [Compound 35, {(1R)-2-cyclobutyl-1-[((2S)-2-{[(2,5-dichlorophenyl)sulfonyl]amino}-3-phenylpropanoyl)amino]ethyl}boronic acid] showed a pIC50 in test [1] of over 7.30. Also, the residence time in test [2] is under 10 min.
Consider `O=C(N[C@@H](CC1CCC1)B(O)O)[C@H](Cc1ccccc1)NS(=O)(=O)c1ccc(-c2cnco2)cc1` [Compound 36, ((1R)-2-cyclobutyl-1-{[(2S)-2-({[4-(1,3-oxazol-5-yl)phenyl]sulfonyl}amino)-3-phenylpropanoyl]amino}ethyl)boronic acid], for which the pIC50 in test [1] is over 7.30. Also, in test [2], the residence time is under 10 min.
Regarding `O=C(N[C@@H](CC1CCC1)B(O)O)[C@H](Cc1ccccc1)NS(=O)(=O)c1ccc(Oc2ccccn2)cc1` [Compound 41, ((1R)-2-cyclobutyl-1-{[(2S)-3-phenyl-2-({[4-(pyridin-2-yloxy)phenyl]sulfonyl}amino)propanoyl]amino}ethyl)boronic acid], in test [1], the pIC50 is over 7.30. Moreover, the residence time in test [2] was under 10 min.
In turn, `O=C(N[C@@H](CC1CCC1)B(O)O)[C@H](Cc1ccccc1)NS(=O)(=O)c1ccc(Oc2ccncc2)cc1` [Compound 43, ((1R)-2-cyclobutyl-1-{[(2S)-3-phenyl-2-({[4-(pyridin-4-yloxy)phenyl]sulfonyl}amino)propanoyl]amino}ethyl)boronic acid] showed a pIC50 in test [1] of over 7.30. Moreover, in test [2], the residence time is under 10 min.
`O=C(N[C@@H](CC1CCC1)B(O)O)[C@H](Cc1ccccc1)NS(=O)(=O)c1ccc(Oc2cccnc2)cc1` [Compound 45, ((1R)-2-cyclobutyl-1-{[(2S)-3-phenyl-2-({[4-(pyridin-3-yl-oxy)phenyl]sulfonyl}amino)propanoyl]amino}ethyl)boronic acid] gave a pIC50 in test [1] of over 7.30. The residence time in test [2] was under 10 min.

The pIC50 is −log10 of the IC50, conventionally taken in molar units.
